From US10300048B2, “Thiazolidinones as cellular anandamide uptake inhibitors and their use in the treatment of psychiatric or neurological disorders and inflammation, in particular neuroinflammation” (UNIVERSITAT BERN, priority 2014, dated 2019)
Like-named read-outs stand apart in the source and are kept apart here.

Columns and labels:
[1] = test system: AEA cellular uptake, U937 cells; experiment: [3H]-AEA cellular uptake inhibition in U937 cells; assay type: cell-based; conditions: Table 1, U937 cells, 100 nM AEA, read-out: AEA uptake inhibition IC50
Description: [^3H]-AEA Cellular Uptake
Screening for AEA cellular uptake inhibition was performed in a semi-automated procedure: Pipetting and washing steps were performed by a Biomek3000 laboratory workstation. First, required amounts of U937 cells were centrifuged at 100×g for 5 min and resuspended in RPMI (37° C.) to a final concentration of 2×10^6 cells/mL. Then, 250 μL of cell suspension (0.5×10^6 cells per sample) were transferred into AquaSil™ silanized glass vials (Chromacol 1.1-MTV) in 96-well format. After addition of 5 μL vehicle (DMSO) or compounds the cells were incubated at 37° C. for 15 min. As positive controls OMDM-2 and UCM707 were used at 10 μM in each run. The ETI-T compounds were measured at up to 7 concentrations in triplicates from 100 pM-100 μM. After pre-incubation, a mixture of 0.5 nM[ethanolamine-1-^3H]-AEA, (60 Ci/mmol) and 99.5 nM of cold AEA (final 100 nM) was added and samples were incubated at 37° C. for another 15 min. The reaction was stopped by rapid filtration over UniFilter-96 GF/C filters (PerkinElmer) pre-soaked with PBS 0.25% BSA. Cells were washed three times with 100 μL ice-cold PBS buffer containing 1% fatty acid free BSA. After drying, 45 μL MicroScint 20 scintillation cocktail (PerkinElmer, Waltham, Mass., US) was added to the wells and the plate was sealed. Radioactivity was measured by liquid scintillation counting on a PerkinElmer Wallac Trilux MicroBeta 1450 during 2 min. Non-specific binding of [^3H]AEA (100 nM) to the glass vials was never higher than 10%. IC50 values were calculated by GraphPad® by non-linear regression using the built-in log(inhibitor) vs. response-variable slope (four parameters) function.
(§1) Statistical analysis and IC50 values were determined using GraphPad® Prism 5.0 (GraphPad® Software, San Diego, Calif., US). Inhibition curves were obtained by non-linear regression using the built-in log(inhibitor) vs. response-variable slope (four parameters) function. Results were calculated as % of vehicle control of the corresponding fraction (cells, aqueous phase) if not mentioned else. In vivo results are shown in absolute values and were analyzed by a one-way ANOVA following a Tukey's multiple comparison test or student's t-test. If not indicated else the results were compared vs. vehicle (CTRL). *** P<0.001, ** P<0.01, * P<0.05, ns=not significant P>0.05.

CB1 receptor = conditions: literature values of reference substances; cited from earlier work
FAAH = FAAH (Homo sapiens (Human), UniProt O00519); experiment: FAAH activity: hydrolysis of [3H]-AEA in U937 cell homogenates; assay type: biochemical; conditions: Table 2; U937 cell homogenate; read-out: FAAH inhibition IC50
Description: Hydrolysis of [^3H]-AEA by FAAH was determined as previously described in cell homogenates of U937 cells (0.18 mg protein) (Omeir et al., 1999, Biochem Biophys Res Commun, 264, 316-20; Mor et al., 2004, J Med Chem, 47, 4998-5008). Protein amounts of cell homogenates corresponded to 0.5×10^6 cells (U937), to assure best possible comparability of IC50 values as used for the AEA cellular uptake assays. URB597 was used as positive control. Protein quantification was performed using a BCA assay (Thermo Scientific). Enzyme activity was assessed by addition of vehicle or compounds in 10 μL DMSO to 490 μL homogenate in 10 mM Tris HCl, 1 mM EDTA, 0.1% (w/v) BSA fatty acid free, pH=8 and incubation for 15 min at 37° C. After, a mixture of AEA plus [ethanolamine-1-^3H]-AEA (0.5 nM) at final 100 nM was added to the homogenates and incubated for 15 min at 37° C. The reaction was stopped by addition of 1 mL ice-cold CHCl3:MeOH (1:1) followed by vigorous vortexing. Phase separation was achieved by centrifugation at 10′000×g at 4° C. for 10 min. Radioactivity of the separated aqueous phase (upper phase) containing [^3H-ethanolamine] or [^3H-glycerol] was measured by liquid scintillation counting on a Tri-Carb 2100 TR liquid scintillation analyzer after addition of 3.5 mL Ultima Gold scintillation cocktail (PerkinElmer Life Sciences). Results are expressed as hydrolysis of tritium substrate in percent of vehicle treated control. IC50 values were calculated by GraphPad®. Data are reported as means of n=3 independent experiments performed in triplicates.
as §1

Sequence of FAAH (O00519 whole entry): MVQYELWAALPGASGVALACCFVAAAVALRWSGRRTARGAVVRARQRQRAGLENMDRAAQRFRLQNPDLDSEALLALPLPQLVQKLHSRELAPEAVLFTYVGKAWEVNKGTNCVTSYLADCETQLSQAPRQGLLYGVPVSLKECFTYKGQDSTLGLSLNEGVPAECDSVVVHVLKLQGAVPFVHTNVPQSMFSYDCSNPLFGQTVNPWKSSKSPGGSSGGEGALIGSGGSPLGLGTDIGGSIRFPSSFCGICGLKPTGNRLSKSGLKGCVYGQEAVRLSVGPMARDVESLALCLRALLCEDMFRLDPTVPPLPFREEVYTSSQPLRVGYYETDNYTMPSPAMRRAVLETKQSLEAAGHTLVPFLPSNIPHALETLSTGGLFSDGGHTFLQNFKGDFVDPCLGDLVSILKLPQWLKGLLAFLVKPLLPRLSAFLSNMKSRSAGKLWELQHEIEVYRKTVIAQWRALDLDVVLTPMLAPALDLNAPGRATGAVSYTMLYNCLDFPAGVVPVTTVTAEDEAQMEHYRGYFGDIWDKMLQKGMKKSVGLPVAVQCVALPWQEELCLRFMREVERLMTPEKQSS

Row | Compound | IC50 ([1]; Homo sapiens, U-937) [µM] | Ki (CB1 receptor) [µM] | IC50 [1] [µM] | IC50 (FAAH) [µM]
1 | CCCCCCCC/C=C\CCCCCCCC(=O)N[C@@H](CO)c1ccc(O)cc1 [OMDM-2, (R)—N-(1-(4-hydroxyphenyl)-2-hydroxyethyl)oleamide, reference compound] | 3.9 | 5.1 |  | 
2 | CCCCC/C=C\C/C=C\C/C=C\C/C=C\CCCC(=O)NCc1ccoc1 [UCM707, N-(3-furanylmethyl)-(5Z,8Z,11Z,14Z)-eicosatetraenamide, reference compound] |  | > 1 | 1.9 | 8.3
